{"source": "paper PMC4636305", "about": "“Identification of Small-Molecule Inhibitors against Meso-2, 6-Diaminopimelate Dehydrogenase from Porphyromonas gingivalis” (PLoS ONE, 2015)", "key": {"P. gingivalis [1]": {"tested_on": "P. gingivalis", "test": "MIC, broth microdilution", "assay_type": "cell-based, Porphyromonas gingivalis", "experimental": "Minimal Inhibitory Concentration (MIC) assays were performed using a broth microdilution method. P. gingivalis cells were grown overnight and the following day diluted 1/10 into fresh medium. Cells were allowed to grow to mid-log phase (OD600 ≈ 0.5). Compounds were serially diluted in 96-well microtiter plates (Jet Biofil, Genesee Scientific, San Diego, CA) and an aliquot of the cell suspension was added to each well with the compound inhibitor sample for a final cell count of 1×10^5 CFU/ml. Plates were incubated for five days at 37°C in anaerobic conditions."}, "S. sanguinis": {"tested_on": "S. sanguinis", "test": "MIC, broth microdilution", "assay_type": "cell-based, Streptococcus sanguinis", "settings": "for MIC: Streptococcus sanguinis, S. sanguinis, lacks the target m-Ddh, n = 3; for S. sanguinis MIC relative to MIC of P. gingivalis: selectivity"}, "[2]": {"target": "Meso-diaminopimelate dehydrogenase (m-Ddh) from P. gingivalis (Porphyromonas gingivalis, UniProt Q7MW40)", "sequence (Q7MW40 entry or part of it)": "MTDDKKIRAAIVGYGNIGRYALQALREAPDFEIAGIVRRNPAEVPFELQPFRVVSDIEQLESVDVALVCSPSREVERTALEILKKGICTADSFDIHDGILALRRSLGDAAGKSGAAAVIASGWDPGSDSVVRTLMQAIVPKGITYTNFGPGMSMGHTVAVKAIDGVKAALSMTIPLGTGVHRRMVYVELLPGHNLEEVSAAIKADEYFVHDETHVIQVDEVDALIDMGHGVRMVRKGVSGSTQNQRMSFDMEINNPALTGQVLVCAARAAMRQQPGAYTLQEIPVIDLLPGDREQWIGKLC", "test": "m-Ddh kinetic assay, inhibitor screening and IC50 determination", "assay_type": "biochemical", "settings": "for IC50: 400 μM m-DAP, 180 μM NADP+, pH 10.5, 25°C, three independent experiments; for IC50 with addition of Triton-X 100 versus without: .01% Triton-X 100, test for aggregation-based inhibition; for inhibition at 3000 µM: read-out: % inhibition of enzymatic activity at 3 mM", "experimental": "(§1) The enzymatic activity for m-Ddh was determined by observing the standard oxidative deamination reaction of the substrate meso-diaminopimelate. The reaction contained 400 μM of meso-diaminopimelate (Sigma-Aldrich, St. Louis, MO), 180 μM NADP^+ (Sigma-Aldrich, St. Louis, MO), 200 mM glycine-KCl-KOH buffer (pH 10.5), and the enzyme in a final volume of 1 ml. The reaction was initiated with the addition of NADP^+. The reaction velocity was calculated from the increase in absorbance at 340 nm, spectrophotometrically monitored at 25°C, where one unit of enzyme was defined as the amount of enzyme catalyzing the formation of […] of NADPH per min.\nA range of concentrations (0–3 mM) of each small-molecule compound inhibitor were added to the standard reaction and the percent of m-Ddh enzymatic inhibition was measured by the kinetic assay described above. Percent inhibition was determined by the formula: (rateofreactionnoinhibitor)−(rateofreactioninhibitor)/rateofreactionnoinhibitor×100. The concentration of each compound inhibitor which caused 50% enzymatic inhibition (IC50) was calculated using PRISM v6.04 software (Graphpad, San Diego, CA) from three independent experiments."}, "P. gingivalis [3]": {"tested_on": "P. gingivalis", "test": "MBC, plating of MIC wells without visible growth", "assay_type": "cell-based, Porphyromonas gingivalis", "settings": "for MBC: Porphyromonas gingivalis, 168 h, plated 7 days, anaerobic, n = 3", "experimental": "Samples were plated on tryptic soy agar plates supplemented with 5% sheep blood (Becton, Dickinson, Franklin Lakes, NJ) and incubated at 37°C in anaerobic conditions for 7 days."}, "P. gingivalis cells": {"tested_on": "P. gingivalis cells", "test": "SEM analysis of compound exposed cells", "assay_type": "cell-based, Porphyromonas gingivalis", "settings": "treated P. gingivalis cells; Compounds 4 and 5 at 5x MIC", "experimental": "Untreated or treated P. gingivalis cells were deposited onto a 0.1 μm disposable Millipore filter to remove medium, and samples were fixed using 2% glutaraldehyde in 0.1 M sodium cacodylate buffer (pH 7.4) for 30 min, followed by 1% osmium tetroxide in 0.1 M sodium cacodylate buffer (pH 7.4). Samples embedded in the filters were then dehydrated in ethanol followed by hexamethyldisilazane (HMDS) and allowed to air-dry. The filters were sectioned and mounted onto stubs and coated with gold for three minutes (EMS– 550 Automated Sputter Coater, Electron Microscopy Sciences, Hatfield, PA). Micrographs were taken at 30,000× total magnification using a Zeiss EVO 50 XVP scanning electron microscope (Carl Zeiss, Peabody, MA)."}, "P. gingivalis [4]": {"tested_on": "P. gingivalis", "test": "Time-kill assay", "assay_type": "cell-based, Porphyromonas gingivalis", "settings": "for reduction of viable P. gingivalis cell count: 5× MIC", "experimental": "P. gingivalis cells were grown overnight and the following day diluted 1/10 into fresh medium. Cells were allowed to grow to mid-log phase (OD600 ≈ 0.5) then diluted to a final cell suspension of 1×10^5 CFU/ml. Compounds were added at a concentration of 5x the MIC determined from the 96-well broth microdilution assay. Samples were taken at different time intervals (0, 0.25, 0.5, 1, 2, 3, 4, 6 and 24 hours) and plated on tryptic soy agar plates supplemented with 5% sheep blood (Becton, Dickinson, Franklin Lakes, NJ) using an automated Eddy Jet spiral plater (Neutec Group, Farmingdale, NY). Plates were incubated at 37°C in anaerobic conditions for 7 days."}, "m-Ddh [5]": {"tested_on": "m-Ddh", "test": "Determination of kinetic parameters of m-Ddh", "assay_type": "biochemical, Porphyromonas gingivalis", "settings": "pH 10.5, 25°C, other substrate held at 0.5 mM; for Km: read-out: apparent Km", "experimental": "as §1\nInitial velocity measurements for m-DAP and NADP^+ were determined at 25°C in a similar reaction for the standard oxidative deamination reaction assay. The reaction contained 200 mM glycine-KCl-KOH buffer (pH 10.5) with m-DAP as the variable substrate with concentrations between 0.001 mM and 1 mM and NADP^+ held constant at a saturating concentration of 0.5 mM or NADP^+ as the variable substrate with concentrations between 0.01 mM to 1 mM and m-DAP held constant at 0.5 mM. Km and Vmax values were determined through non-linear fitting. All assays were performed in triplicates and non-linear fitting Michaelis-Menten data were calculated from Graphpad Prism version 5.04 (Graphpad, San Diego, CA)."}, "m-Ddh [6]": {"tested_on": "m-Ddh", "set-up": "method as in PMID 21616177", "settings": "C. thermocellum m-Ddh; cited from earlier work"}, "[7]": {"settings": "Porphyromonas gingivalis, 120 h, five days, 37°C, anaerobic, n = 3"}, "[8]": {"settings": "compound at 3 mM, initial screen"}}, "note": "Entries after “also recorded” stand apart in the source; their conditions may differ. Like-named read-outs stand apart in the source and are kept apart here. Residues, ends and D or L forms follow the SMILES beside them.", "data": [{"smiles": "COc1ccc(S(=O)(=O)Nc2nc3ccccc3nc2Nc2cccc(C(=O)O)c2)cc1", "note": "[Compound 4]", "values": [{"measurement": "MIC", "setting": "P. gingivalis [1]; [7]", "result": 250, "unit": "µM"}, {"measurement": "MIC", "setting": "S. sanguinis", "result": 1740, "unit": "µM"}, {"measurement": "S. sanguinis MIC relative to MIC of P. gingivalis", "setting": "S. sanguinis", "result": 7, "unit": "×"}, {"measurement": "IC50", "setting": "[2]", "result": "157 ± 26", "unit": "µM"}, {"measurement": "IC50 with addition of Triton-X 100 versus without", "setting": "[2]", "result": "no difference in activity"}, {"measurement": "inhibition at 3000 µM", "setting": "[2]; [8]", "result": "≥ 90", "unit": "%"}, {"measurement": "MBC to MIC ratio", "setting": "P. gingivalis [3]", "result": "less than 4"}, {"measurement": "MBC", "setting": "P. gingivalis [3]", "result": 374, "unit": "µM"}, {"measurement": "cellular structure by SEM", "setting": "P. gingivalis cells", "result": "alteration of the cellular structure"}, {"measurement": "P. gingivalis cell count", "setting": "P. gingivalis [4]; 5x MIC, after six hours of treatment", "result": "maintained a low cell count"}, {"measurement": "reduction of viable P. gingivalis cell count", "setting": "P. gingivalis [4]; within 6 h of exposure", "result": 2, "unit": "log10 CFU /ml"}]}, {"smiles": "Cc1cc(S(=O)(=O)Nc2cc(SCCC(=O)O)c(O)c3ccccc23)ccc1F", "note": "[Compound 5]", "values": [{"measurement": "MIC", "setting": "P. gingivalis [1]; [7]", "result": 167, "unit": "µM"}, {"measurement": "MIC", "setting": "P. gingivalis [1]; five days, 37°C, anaerobic, n = 3", "result": 167, "unit": "µM"}, {"measurement": "MIC", "setting": "S. sanguinis", "result": 305, "unit": "µM"}, {"measurement": "S. sanguinis MIC relative to MIC of P. gingivalis", "setting": "S. sanguinis", "result": "almost double"}, {"measurement": "IC50", "setting": "[2]", "result": "310 ± 23", "unit": "µM"}, {"measurement": "IC50 with addition of Triton-X 100 versus without", "setting": "[2]", "result": "no difference in activity"}, {"measurement": "inhibition at 3000 µM", "setting": "[2]; [8]", "result": "≥ 90", "unit": "%"}, {"measurement": "MBC to MIC ratio", "setting": "P. gingivalis [3]", "result": "less than 4"}, {"measurement": "MBC", "setting": "P. gingivalis [3]", "result": 254, "unit": "µM"}, {"measurement": "cellular structure by SEM", "setting": "P. gingivalis cells", "result": "alteration of the cellular structure"}, {"measurement": "P. gingivalis cell viability", "setting": "P. gingivalis [4]; 5x MIC, after two hours of exposure", "result": "no viable cell count; also recorded: complete elimination"}, {"measurement": "reduction of viable P. gingivalis cell count", "setting": "P. gingivalis [4]; after 2 h of exposure", "result": 5, "unit": "log10 CFU/ml"}]}, {"smiles": "O=C(O)CCC(=O)Nc1ccc(S(=O)(=O)Nc2cnc3ccccc3n2)cc1", "note": "[Compound 6]", "values": [{"measurement": "MIC", "setting": "P. gingivalis [1]; [7]", "result": 2820, "unit": "µM"}, {"measurement": "MIC", "setting": "P. gingivalis [1]; Porphyromonas gingivalis, bound stated", "result": "> 2000", "unit": "µM"}, {"measurement": "MIC", "setting": "S. sanguinis", "result": 3310, "unit": "µM"}, {"measurement": "IC50", "setting": "[2]", "result": "356 ± 16", "unit": "µM"}, {"measurement": "IC50 with addition of Triton-X 100 versus without", "setting": "[2]", "result": "no difference in activity"}, {"measurement": "inhibition at 3000 µM", "setting": "[2]; [8]", "result": "≥ 90", "unit": "%"}]}, {"smiles": "CCC[C@@H]1CN(c2nc(C)ccc2C(=O)O)C[C@H]1C(=O)O", "note": "[Compound 7]", "values": [{"measurement": "IC50", "setting": "[2]", "result": "1160 ± 175", "unit": "µM"}, {"measurement": "inhibition at 3000 µM", "setting": "[2]; [8]", "result": "≥ 90", "unit": "%"}]}, {"smiles": "NCc1[nH]cc(CCC(=O)O)c1CC(=O)O", "note": "[Compound 8]", "values": [{"measurement": "% inhibition of enzymatic activity at 3 mM", "setting": "[2]; [8]", "result": "No inhibition at 3 mM"}]}, {"smiles": "O=C(O)c1sccc1S(=O)(=O)Nc1cccc2[nH]ncc12", "note": "[Compound 9]", "values": [{"measurement": "% inhibition of enzymatic activity at 3 mM", "setting": "[2]; [8]", "result": "No inhibition at 3 mM"}]}, {"smiles": "N[C@@H](CC(=O)O)C(=O)N[C@@H](Cc1ccccc1)C(=O)O", "note": "[Compound 10] (H-Asp-Phe-OH)", "values": [{"measurement": "inhibition at 3000 µM", "setting": "[2]", "result": 2, "unit": "%"}]}, {"smiles": "O=C(O)CCCC(O)(O)C(=O)O", "note": "[Compound 11]", "values": [{"measurement": "inhibition at 3000 µM", "setting": "[2]; [8]", "result": 13, "unit": "%"}]}, {"smiles": "O=C(O)c1cccc(S(=O)(=O)Nc2ccnc(Sc3ccccn3)c2)c1", "note": "[Compound 12]", "values": [{"measurement": "% inhibition of enzymatic activity at 3 mM", "setting": "[2]; [8]", "result": "No inhibition at 3 mM"}]}, {"smiles": "O=C(O)c1cccc(NS(=O)(=O)c2ccc(O)c(C(=O)O)c2)c1", "note": "[Compound 13]", "values": [{"measurement": "inhibition at 3000 µM", "setting": "[2]; [8]", "result": 6, "unit": "%"}]}, {"smiles": "Cc1n[nH]c(C)c1S(=O)(=O)Nc1cccc(NS(=O)(=O)c2ccccc2)c1", "note": "[Compound 14]", "values": [{"measurement": "inhibition at 3000 µM", "setting": "[2]; [8]", "result": 17, "unit": "%"}]}, {"smiles": "NC(=O)c1ccc[n+]([C@@H]2O[C@H](COP(=O)([O-])OP(=O)(O)OC[C@H]3O[C@@H](n4cnc5c(N)ncnc54)[C@H](OP(=O)(O)O)[C@@H]3O)[C@@H](O)[C@H]2O)c1", "note": "[NADP^+]", "values": [{"measurement": "Vmax", "setting": "m-Ddh [5]", "result": 91.95, "unit": "nmol/s"}, {"measurement": "Km", "setting": "m-Ddh [5]", "result": 60, "unit": "µM"}, {"measurement": "Km", "setting": "m-Ddh [6]", "result": 90, "unit": "µM"}]}, {"smiles": "CC1(C)S[C@@H]2[C@H](NC(=O)[C@H](N)c3ccccc3)C(=O)N2[C@H]1C(=O)O", "note": "[ampicillin, reference compound]", "values": [{"measurement": "cellular structure by SEM", "setting": "P. gingivalis cells", "result": "altered morphology"}]}, {"smiles": "N[C@H](CCC[C@H](N)C(=O)O)C(=O)O", "note": "[m-DAP, meso-diaminopimelate]", "values": [{"measurement": "Vmax", "setting": "m-Ddh [5]", "result": 130.1, "unit": "nmol/s"}, {"measurement": "Km", "setting": "m-Ddh [5]", "result": 370, "unit": "µM"}]}]}
